{"source": "patent US20230085307A1", "about": "“PYRIDAZINONE COMPOUND AND HERBICIDE” (NISSAN CHEMICAL CORPORATION, priority 2019, published 2023)", "key": {"[1]": {"system": "green foxtail", "test": "Test Example 5: herbicidal effect by foliage application, plastic box (Table 20, symbol G)", "assay_type": "in vivo, green foxtail (Setaria viridis)", "details": "foliage application", "procedure,_shortened": "(§1)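 Foliar spray test: emulsion formulation diluted in water to a set application rate, sprayed onto 14-day-old plants raised in diluvial soil at 25° C to 30° C under glass. Both herbicidal effect and crop effect rated visually three weeks later.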"}, "[2]": {"system": "velvetleaf", "test": "Test Example 5: herbicidal effect by foliage application, plastic box (Table 20, symbol M)", "assay_type": "in vivo, velvetleaf (Abutilon theophrasti)", "details": "foliage application", "procedure,_shortened": "as §1"}, "[3]": {"system": "windgrass", "test": "Test Example 5: herbicidal effect by foliage application, plastic box (Table 20, symbol L)", "assay_type": "in vivo, windgrass (Apera spica-venti)", "details": "foliage application", "procedure,_shortened": "as §1"}, "[4]": {"system": "southern crabgrass", "test": "Test Example 5: herbicidal effect by foliage application, plastic box (Table 20, symbol F)", "assay_type": "in vivo, southern crabgrass (Digitaria ciliaris)", "details": "foliage application", "procedure,_shortened": "as §1"}, "[5]": {"system": "Italian ryegrass", "test": "Test Example 5: herbicidal effect by foliage application, plastic box (Table 20, symbol K)", "assay_type": "in vivo, Italian ryegrass (Lolium multiflorum)", "details": "foliage application", "procedure,_shortened": "as §1"}, "[6]": {"system": "oval-leafed pondweed", "test": "Test Example 1: herbicidal activity, application before weed generation under submerged conditions (Table 16, symbol C)", "assay_type": "in vivo, oval-leafed pondweed (Monochoria vaginalis)", "excerpt": "[Test Example 1] Herbicidal Activity Test by Application before Weed Generation under Submerged Conditions After alluvial soil was placed into 1/10000 are of Wagner pot, water was poured and mixed to form a submerged condition having a water depth of 4 cm. Seeds of late watergrass, Japanese bulrush, and oval-leafed pondweed were sowed in a mixed manner in the aforementioned pot, and then 2.5 leaf stage rice plant seedlings were transplanted thereto. On the day of sowing seeds, the emulsion agent of the compound of the present invention prepared according to Formulation Example 2 was diluted with water so as to achieve a predetermined herbicide amount, and the diluted emulsion agent was applied to the surface of the water. The pot was placed in a greenhouse at 25° C. to 30° C. for growth of the plants. Three weeks after the herbicide application, the effect of the herbicide on each plant was evaluated according to the following criteria. Evaluation Criteria 5: Herbicidal rate of 90% or more (almost completely withered) 4: Herbicidal rate of 70% or more and less than 90% 3: Herbicidal rate of 40% or more and less than 70% 2: Herbicidal rate of 20% or more and less than 40% 1: Herbicidal rate of 5% or more and less than 20% 0: Herbicidal rate of 5% or less (almost no effect)"}, "[7]": {"system": "barnyard grass", "test": "Test Example 5: herbicidal effect by foliage application, plastic box (Table 20, symbol H)", "assay_type": "in vivo, barnyard grass (Echinochloa crus-galli)", "details": "foliage application", "procedure,_shortened": "as §1"}, "[8]": {"system": "blackgrass", "test": "Test Example 5: herbicidal effect by foliage application, plastic box (Table 20, symbol J)", "assay_type": "in vivo, blackgrass (Alopecurus myosuroides)", "details": "foliage application", "procedure,_shortened": "as §1"}, "[9]": {"system": "rice flat sedge", "test": "Test Example 3: herbicidal effect by foliage application, Wagner pot (Table 18, symbol E)", "assay_type": "in vivo, rice flat sedge (Cyperus iria)", "procedure,_shortened": "(§2)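 Plants were sown in alluvial soil held under 0.1–0.5 cm standing water and grown 14 days in a greenhouse at 25–30 °C. An emulsifiable formulation, water-diluted to the set dose, was then sprayed onto the foliage, and effects were scored three weeks later using previously defined criteria.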"}, "[10]": {"system": "wild oat", "test": "Test Example 5: herbicidal effect by foliage application, plastic box (Table 20, symbol I)", "assay_type": "in vivo, wild oat (Avena fatua)", "details": "foliage application", "procedure,_shortened": "as §1"}, "[11]": {"system": "Chinese sprangletop", "test": "Test Example 3: herbicidal effect by foliage application, Wagner pot (Table 18, symbol D)", "assay_type": "in vivo, chinese sprangletop (Leptochloa chinensis)", "procedure,_shortened": "as §2"}, "[12]": {"system": "barnyard grass", "test": "Test Example 3: herbicidal effect by foliage application, Wagner pot (Table 18, symbol H)", "assay_type": "in vivo, barnyard grass (Echinochloa crus-galli)", "procedure,_shortened": "as §2"}, "[13]": {"system": "lambsquarters", "test": "Test Example 5: herbicidal effect by foliage application, plastic box (Table 20, symbol O)", "assay_type": "in vivo, lambsquarters (Chenopodium album)", "details": "foliage application", "procedure,_shortened": "as §1"}, "[14]": {"system": "persian speedwell", "test": "Test Example 5: herbicidal effect by foliage application, plastic box (Table 20, symbol R)", "assay_type": "in vivo, Persian speedwell (Veronica persica)", "details": "foliage application", "procedure,_shortened": "as §1"}, "[15]": {"system": "late watergrass", "test": "Test Example 1: herbicidal activity, application before weed generation under submerged conditions (Table 16, symbol A)", "assay_type": "in vivo, late watergrass (Echinochloa oryzicola)", "procedure,_shortened": "(§3)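 Alluvial soil was flooded to 4 cm depth, weed seeds were sown mixed and 2.5-leaf rice seedlings were transplanted. On sowing day, the compound's emulsion, diluted in water to a set dose, was applied to the water surface. Plants grew at 25–30 °C and were scored 0–5 after three weeks.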"}, "[16]": {"system": "Japanese bulrush", "test": "Test Example 1: herbicidal activity, application before weed generation under submerged conditions (Table 16, symbol B)", "assay_type": "in vivo, Japanese bulrush (Schoenoplectus juncoides)", "procedure,_shortened": "as §3"}, "[17]": {"details": "320 g/ha, three weeks after application"}, "[18]": {"details": "amount of applied herbicide 320 g/ha"}, "[19]": {"details": "80 g/ha, 3 weeks after application"}}, "data": [{"molecule": "CCCC(=O)Oc1c(C)nn(C)c(=O)c1-c1c(-c2ccc(C(F)(F)F)cc2)sc2cc(C)c(C)cc12", "note": "[5-097]", "values": [{"measurement": "herbicidal effect on green foxtail (G)", "setting": "[1]; [17]", "result": "0 (Herbicidal rate of 5% or less (almost no effect))"}, {"measurement": "herbicidal effect on velvetleaf (M)", "setting": "[2]; [17]", "result": "0 (Herbicidal rate of 5% or less (almost no effect))"}, {"measurement": "herbicidal effect on windgrass (L)", "setting": "[3]; [17]", "result": "0 (Herbicidal rate of 5% or less (almost no effect))"}, {"measurement": "herbicidal effect on southern crabgrass (F)", "setting": "[4]; [17]", "result": "0 (Herbicidal rate of 5% or less (almost no effect))"}, {"measurement": "herbicidal effect on Italian ryegrass (K)", "setting": "[5]; [17]", "result": "0 (Herbicidal rate of 5% or less (almost no effect))"}, {"measurement": "Herbicidal effect, C: oval-leafed pondweed", "setting": "[6]; [18]", "result": "0 (Herbicidal rate of 5% or less (almost no effect))"}, {"measurement": "herbicidal effect on barnyard grass (H)", "setting": "[7]; [17]", "result": "0 (Herbicidal rate of 5% or less (almost no effect))"}, {"measurement": "herbicidal effect on blackgrass (J)", "setting": "[8]; [17]", "result": "0 (Herbicidal rate of 5% or less (almost no effect))"}, {"measurement": "herbicidal effect on rice flat sedge (E)", "setting": "[9]; 320 g/ha", "result": "1 (Herbicidal rate of 5% or more and less than 20%)"}, {"measurement": "herbicidal effect on wild oat (I)", "setting": "[10]; [17]", "result": "0 (Herbicidal rate of 5% or less (almost no effect))"}, {"measurement": "herbicidal effect on Chinese sprangletop (D)", "setting": "[11]; 320 g/ha", "result": "2 (Herbicidal rate of 20% or more and less than 40%)"}, {"measurement": "herbicidal effect on barnyard grass (H)", "setting": "[12]; 320 g/ha", "result": "4 (Herbicidal rate of 70% or more and less than 90%)"}, {"measurement": "herbicidal effect on lambsquarters (O)", "setting": "[13]; [17]", "result": "0 (Herbicidal rate of 5% or less (almost no effect))"}, {"measurement": "herbicidal effect on persian speedwell (R)", "setting": "[14]; [17]", "result": "0 (Herbicidal rate of 5% or less (almost no effect))"}, {"measurement": "Herbicidal effect, A: late watergrass", "setting": "[15]; [18]", "result": "3 (Herbicidal rate of 40% or more and less than 70%)"}, {"measurement": "Herbicidal effect, B: Japanese bulrush", "setting": "[16]; [18]", "result": "0 (Herbicidal rate of 5% or less (almost no effect))"}]}, {"molecule": "CC#CCOc1ccc(-c2sc3ccccc3c2-c2c(O)c(C)nn(C)c2=O)cc1", "note": "[1-219]", "values": [{"measurement": "effect on green foxtail (G)", "setting": "[1]; [19]", "result": "5 (Herbicidal rate of 90% or more (almost completely withered))"}, {"measurement": "effect on velvetleaf (M)", "setting": "[2]; [19]", "result": "4 (Herbicidal rate of 70% or more and less than 90%)"}, {"measurement": "effect on windgrass (L)", "setting": "[3]; [19]", "result": "0 (Herbicidal rate of 5% or less (almost no effect))"}, {"measurement": "effect on southern crabgrass (F)", "setting": "[4]; [19]", "result": "3 (Herbicidal rate of 40% or more and less than 70%)"}, {"measurement": "effect on Italian ryegrass (K)", "setting": "[5]; [19]", "result": "5 (Herbicidal rate of 90% or more (almost completely withered))"}, {"measurement": "Herbicidal effect on C: oval-leafed pondweed (grade 0-5)", "setting": "[6]; 80 g/ha applied herbicide", "result": "3 (Herbicidal rate of 40% or more and less than 70%)"}, {"measurement": "effect on barnyard grass (H)", "setting": "[7]; [19]", "result": "4 (Herbicidal rate of 70% or more and less than 90%)"}, {"measurement": "effect on blackgrass (J)", "setting": "[8]; [19]", "result": "4 (Herbicidal rate of 70% or more and less than 90%)"}, {"measurement": "herbicidal effect on E (rice flat sedge), rating 0-5", "setting": "[9]; 80 g/ha", "result": "3 (Herbicidal rate of 40% or more and less than 70%)"}, {"measurement": "effect on wild oat (I)", "setting": "[10]; [19]", "result": "1 (Herbicidal rate of 5% or more and less than 20%)"}, {"measurement": "herbicidal effect on D (Chinese sprangletop), rating 0-5", "setting": "[11]; 80 g/ha", "result": "5 (Herbicidal rate of 90% or more (almost completely withered))"}, {"measurement": "herbicidal effect on H (barnyard grass), rating 0-5", "setting": "[12]; 80 g/ha", "result": "5 (Herbicidal rate of 90% or more (almost completely withered))"}, {"measurement": "effect on lambsquarters (O)", "setting": "[13]; [19]", "result": "5 (Herbicidal rate of 90% or more (almost completely withered))"}, {"measurement": "effect on persian speedwell (R)", "setting": "[14]; [19]", "result": "5 (Herbicidal rate of 90% or more (almost completely withered))"}, {"measurement": "Herbicidal effect on A: late watergrass (grade 0-5)", "setting": "[15]; 80 g/ha applied herbicide", "result": "5 (Herbicidal rate of 90% or more (almost completely withered))"}, {"measurement": "Herbicidal effect on B: Japanese bulrush (grade 0-5)", "setting": "[16]; 80 g/ha applied herbicide", "result": "3 (Herbicidal rate of 40% or more and less than 70%)"}]}]}
